Test results published in patent publication US11207320B2, “Compositions and methods for cancer expressing PDE3A or SLFN12” (The Broad Institute, Inc., priority 2015, dated 2021).

System: 766 cancer cell lines
Experiment: Large-scale cell-line viability measurements (766 cancer cell lines, 72 h, AUC)
Assay type: cell-based, human
Conditions: 72 hours
Experimental: Cell lines were treated for 72 hours with concentrations ranging from 66.4 μM-2 nM in 2-fold step dilutions.
To characterize cellular sensitivity to DNMDP further, 766 genomically characterized cancer cell lines were screened for DMNDP sensitivity at concentrations ranging from 66.4 μM to 2 nM in 2-fold dilution steps for 72 hours. From these cell lines, 22 cell lines were categorized as sensitive with a robust Z-score lower than −4, which represented multiple lineages including multiple melanoma cell lines, amongst others (Table 1).
The sensitivity of […] cancer cell lines (CCLs) was measured drawn from 23 different lineages to DNMDP. Each cell line was plated in its preferred media in white opaque 1536-plates at a density of 500 cells/well. After incubating overnight, DNMDP was added by acoustic transfer at 16 concentrations ranging from 66.4 μM-2 nM in 2-fold steps in duplicate (Labcyte Echo 555, Labcyte Inc., Sunnyvale, Calif.). After 72 hours treatment, cellular ATP levels were measured as a surrogate for viability (CELLTITERGLO®, Promega Corporation, Madison, Wis.) according to manufacturer's protocols using a ViewLux Microplate Imager (PerkinElmer, Waltham, Mass.) and normalized to background (media-only) and vehicle (DMSO)-treated control wells.
Concentration response curves were fit using nonlinear fits to 2- or 3-parameter sigmoid functions through all 16 concentrations with the low-concentration asymptote set to the DMSO-normalized value, and an optimal 8-point dose curve spanning the range of compound-sensitivity was identified. The area under the 8-point dose curve (AUC) was computed by numeric integration as a metric for sensitivity for further analysis. Similar sensitivity measurements have been obtained for a collection of 480 other compounds, enabling analyses that identify cell lines responding uniquely to DNMDP (see Broad Institute Cancer Therapeutics Response Portal, a dataset to identify comprehensively relationships between genetic and lineage features of human cancer cell lines and small-molecule sensitivities for complete list of compounds).

[1] = MOLM6 (HAEMATOPOIETIC AND LYMPHOID TISSUE)
[2] = MOLT13 (HAEMATOPOIETIC AND LYMPHOID TISSUE)
[3] = MV411 (HAEMATOPOIETIC AND LYMPHOID TISSUE)
[4] = NALM6 (HAEMATOPOIETIC AND LYMPHOID TISSUE)
[5] = NB4 (HAEMATOPOIETIC AND LYMPHOID TISSUE)
[6] = NCO2 (HAEMATOPOIETIC AND LYMPHOID TISSUE)
[7] = OCIAML2 (HAEMATOPOIETIC AND LYMPHOID TISSUE)
[8] = OCILY19 (HAEMATOPOIETIC AND LYMPHOID TISSUE)
[9] = PECAPJ15 (UPPER AERODIGESTIVE TRACT)
[10] = PF382 (HAEMATOPOIETIC AND LYMPHOID TISSUE)
[11] = RPMI8402 (HAEMATOPOIETIC AND LYMPHOID TISSUE)
[12] = SCC4 (UPPER AERODIGESTIVE TRACT)
[13] = SNU1214 (UPPER AERODIGESTIVE TRACT)
[14] = U118MG (CENTRAL NERVOUS SYSTEM)
[15] = U266B1 (HAEMATOPOIETIC AND LYMPHOID TISSUE)
[16] = U937 (HAEMATOPOIETIC AND LYMPHOID TISSUE)

With `CCN(CC)c1ccc(C2=NNC(=O)CC2C)cc1[N+](=O)[O-]` (centres unmarked) [DNMDP, 6-(4-(diethylamino)-3-nitrophenyl)-5-methyl-4,5-dihydropyridazin-3(2H)-one] the “Robust Z-score” value (LU99 (LUNG)) was −0.8744, the “DNMDP AUC” value (LXF289 (LUNG)) was 5.734 and the “Robust Z-score” value (LXF289 (LUNG)) was −0.9454. The “DNMDP AUC” value (MALME3M (SKIN)) was 6.112, the “Robust Z-score” value (MALME3M (SKIN)) was −0.5486 and the “DNMDP AUC” value (MCF7 (BREAST)) was 6.1256. For the same molecule, the “Robust Z-score” value (MCF7 (BREAST)) was −0.5343, the “DNMDP AUC” value (MEWO (SKIN)) was 5.738 and the “Robust Z-score” value (MEWO (SKIN)) was −0.9412. For the same molecule, the “DNMDP AUC” value (MKN7 (STOMACH)) was 6.1453, the “Robust Z-score” value (MKN7 (STOMACH)) was −0.5136 and the “DNMDP AUC” value [1] was 6.0447. For the same molecule, the “Robust Z-score” value [1] was −0.6192, the “DNMDP AUC” value [2] was 6.084 and the “Robust Z-score” value [2] was −0.578. For the same molecule, the “DNMDP AUC” value [3] was 5.6905, the “Robust Z-score” value [3] was −0.991 and the “DNMDP AUC” value [4] was 5.7872. For the same molecule, the “Robust Z-score” value [4] was −0.8895, the “DNMDP AUC” value [5] was 6.219 and the “Robust Z-score” value [5] was −0.4363. The “DNMDP AUC” value (NCIH23 (LUNG)) was 6.1854, the “Robust Z-score” value (NCIH23 (LUNG)) was −0.4716 and the “DNMDP AUC” value (NCIH1184 (LUNG)) was 6.1776. For the same molecule, the “Robust Z-score” value (NCIH1184 (LUNG)) was −0.4797, the “DNMDP AUC” value (NCIH1355 (LUNG)) was 6.171 and the “Robust Z-score” value (NCIH1355 (LUNG)) was −0.4867. The “DNMDP AUC” value (NCIH1435 (LUNG)) was 5.9756, the “Robust Z-score” value (NCIH1435 (LUNG)) was −0.6918 and the “DNMDP AUC” value (NCIH1563 (LUNG)) was 1.0887. For the same molecule, the “Robust Z-score” value (NCIH1563 (LUNG)) was −5.821, the “DNMDP AUC” value (NCIH1793 (LUNG)) was 6.2189 and the “Robust Z-score” value (NCIH1793 (LUNG)) was −0.4364. For the same molecule, the “DNMDP AUC” value (NCIH2009 (LUNG)) was 5.7594, the “Robust Z-score” value (NCIH2009 (LUNG)) was −0.9187 and the “DNMDP AUC” value (NCIH2122 (LUNG)) was 1.3105. For the same molecule, the “Robust Z-score” value (NCIH2122 (LUNG)) was −5.588, the “DNMDP AUC” value (NCIH2141 (LUNG)) was 5.7218 and the “Robust Z-score” value (NCIH2141 (LUNG)) was −0.9582. For the same molecule, the “DNMDP AUC” value [6] was 5.7088, the “Robust Z-score” value [6] was −0.9718 and the “DNMDP AUC” value [7] was 5.8945. For the same molecule, the “Robust Z-score” value [7] was −0.7769, the “DNMDP AUC” value [8] was 6.1512 and the “Robust Z-score” value [8] was −0.5075. The “DNMDP AUC” value (ONCODG1 (OVARY)) was 5.8296, the “Robust Z-score” value (ONCODG1 (OVARY)) was −0.845 and the “DNMDP AUC” value (PC14 (LUNG)) was 6.2003. For the same molecule, the “Robust Z-score” value (PC14 (LUNG)) was −0.4559, the “DNMDP AUC” value [9] was 5.789 and the “Robust Z-score” value [9] was −0.8876. The “DNMDP AUC” value [10] was 5.8519, the “Robust Z-score” value [10] was −0.8216 and the “DNMDP AUC” value (RERFLCAD1 (LUNG)) was 6.1862. For the same molecule, the “Robust Z-score” value (RERFLCAD1 (LUNG)) was −0.4707, the “DNMDP AUC” value (RKN (SOFT TISSUE)) was 6.1579 and the “Robust Z-score” value (RKN (SOFT TISSUE)) was −0.5004. The “DNMDP AUC” value [11] was 5.9827, the “Robust Z-score” value [11] was −0.6843 and the “DNMDP AUC” value (RVH421 (SKIN)) was 1.4556. The “Robust Z-score” value (RVH421 (SKIN)) was −5.436, the “DNMDP AUC” value [12] was 6.0502 and the “Robust Z-score” value [12] was −0.6135. The “DNMDP AUC” value (SKCO1 (LARGE INTESTINE)) was 5.688, the “Robust Z-score” value (SKCO1 (LARGE INTESTINE)) was −0.9936 and the “DNMDP AUC” value (SKLU1 (LUNG)) was 6.0109. The “Robust Z-score” value (SKLU1 (LUNG)) was −0.6547, the “DNMDP AUC” value (SKMEL3 (SKIN)) was 1.2215 and the “Robust Z-score” value (SKMEL3 (SKIN)) was −5.682. The “DNMDP AUC” value (SKMEL5 (SKIN)) was 5.9639, the “Robust Z-score” value (SKMEL5 (SKIN)) was −0.7041 and the “DNMDP AUC” value (SKNBE2 (AUTONOMIC GANGLIA)) was 5.7717. For the same molecule, the “Robust Z-score” value (SKNBE2 (AUTONOMIC GANGLIA)) was −0.9058, the “DNMDP AUC” value (SKNSH (AUTONOMIC GANGLIA)) was 5.8424 and the “Robust Z-score” value (SKNSH (AUTONOMIC GANGLIA)) was −0.8316. The “DNMDP AUC” value (SNU119 (OVARY)) was 6.1473, the “Robust Z-score” value (SNU119 (OVARY)) was −0.5115 and the “DNMDP AUC” value (SNU620 (STOMACH)) was 6.1039. For the same molecule, the “Robust Z-score” value (SNU620 (STOMACH)) was −0.5571, the “DNMDP AUC” value (SNU869 (BILIARY TRACT)) was 5.7543 and the “Robust Z-score” value (SNU869 (BILIARY TRACT)) was −0.9241. For the same molecule, the “DNMDP AUC” value [13] was 6.2071, the “Robust Z-score” value [13] was −0.4488 and the “DNMDP AUC” value (SNU1272 (KIDNEY)) was 6.0226. For the same molecule, the “Robust Z-score” value (SNU1272 (KIDNEY)) was −0.6424, the “DNMDP AUC” value (SUIT2 (PANCREAS)) was 5.8956 and the “Robust Z-score” value (SUIT2 (PANCREAS)) was −0.7757. For the same molecule, the “DNMDP AUC” value (T3M10 (LUNG)) was 6.1867, the “Robust Z-score” value (T3M10 (LUNG)) was −0.4702 and the “DNMDP AUC” value (TE8 (OESOPHAGUS)) was 6.2119. For the same molecule, the “Robust Z-score” value (TE8 (OESOPHAGUS)) was −0.4437, the “DNMDP AUC” value (TE125T (SOFT TISSUE)) was 5.744 and the “Robust Z-score” value (TE125T (SOFT TISSUE)) was −0.9349. The “DNMDP AUC” value (TUHR14TKB (KIDNEY)) was 5.8451, the “Robust Z-score” value (TUHR14TKB (KIDNEY)) was −0.8287 and the “DNMDP AUC” value [14] was 6.1481. For the same molecule, the “Robust Z-score” value [14] was −0.5107, the “DNMDP AUC” value [15] was 6.1906 and the “Robust Z-score” value [15] was −0.4661. For the same molecule, the “DNMDP AUC” value [16] was 6.1777 and the “Robust Z-score” value [16] was −0.4796.
